In patent publication US20220125885A1, “GLUCAGON ANALOG AGONISTS AND METHODS OF USING THE SAME” (Eli Lilly and Company, priority 2019, published 2022):
Where a SMILES comes first, the peptide text is derived from it. Where no end group is shown, it is not given here. [ ]: non-standard residue; d: D form. 4Pal = N[C@@H](Cc1ccncc1)C(=O)O; Dab = NCC[C@H](N)C(=O)O; Aib = CC(C)(N)C(=O)O

T1: human GIP receptor (hGIP-R) (Homo sapiens, UniProt P48546)
T1 construct: expressed in transfected cells; host or cells: HEK-293 clonal cell line
T1 sequence (P48546 22-466): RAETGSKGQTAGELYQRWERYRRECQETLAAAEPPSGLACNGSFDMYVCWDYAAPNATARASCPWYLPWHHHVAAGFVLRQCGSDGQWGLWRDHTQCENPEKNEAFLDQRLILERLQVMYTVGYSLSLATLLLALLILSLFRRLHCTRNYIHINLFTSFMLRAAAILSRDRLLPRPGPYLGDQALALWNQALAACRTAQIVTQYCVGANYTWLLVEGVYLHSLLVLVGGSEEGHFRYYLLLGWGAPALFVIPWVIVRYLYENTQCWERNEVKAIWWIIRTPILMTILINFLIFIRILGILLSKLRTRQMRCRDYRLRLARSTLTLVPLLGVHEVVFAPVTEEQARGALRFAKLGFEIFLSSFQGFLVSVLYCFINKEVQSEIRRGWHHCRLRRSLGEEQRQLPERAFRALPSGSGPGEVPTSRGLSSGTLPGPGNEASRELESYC

T2: human GLP-2 receptor (human, UniProt O95838 1-553)
T2 sequence (looked up): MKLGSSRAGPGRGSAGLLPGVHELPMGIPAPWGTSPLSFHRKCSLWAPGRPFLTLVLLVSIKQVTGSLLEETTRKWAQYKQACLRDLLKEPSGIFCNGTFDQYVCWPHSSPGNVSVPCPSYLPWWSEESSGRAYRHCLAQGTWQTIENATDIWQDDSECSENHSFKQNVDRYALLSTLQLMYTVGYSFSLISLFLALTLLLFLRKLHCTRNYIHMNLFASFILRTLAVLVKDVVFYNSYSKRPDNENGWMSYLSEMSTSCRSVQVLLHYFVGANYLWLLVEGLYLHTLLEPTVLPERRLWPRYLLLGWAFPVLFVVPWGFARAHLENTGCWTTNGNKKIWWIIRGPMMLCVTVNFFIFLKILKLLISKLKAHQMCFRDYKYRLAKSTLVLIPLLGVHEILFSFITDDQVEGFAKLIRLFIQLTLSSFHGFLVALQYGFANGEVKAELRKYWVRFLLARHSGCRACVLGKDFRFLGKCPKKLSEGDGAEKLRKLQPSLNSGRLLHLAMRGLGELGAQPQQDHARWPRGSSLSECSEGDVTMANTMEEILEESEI

B1: GLP-2 (1-34) acid (peptide)
peptide: HADGSFSDEMNTILDNLAARDFINWLIQTKITDR-OH

What was measured:
[1] = target: T1, human GIP receptor (hGIP-R); test: cAMP functional activity assay, hGIP-R HEK-293 cells; type: cell-based; conditions: for Emax at 9.95 µM: HEK293, percent of response to 10 nM GIP(1-42)NH2, Examples at 9.95 μM, read-out: Emax hGIPR; for EC50: in the presence of FBS and BSA, read-out: cAMP EC50 hGIPR
Experimental: (§1) After a sixty-minute incubation at room temperature, the resulting increase in intracellular cAMP is quantitatively determined using a cAMP Dynamic 2 HTRF Assay Kit (62AM4PEJ; CisBio; Codolet, FR). Briefly, cAMP levels within the cell are detected by adding a cAMP-d2 conjugate in cell lysis buffer (10 μl) followed by an anti-cAMP-Eu3+-Cryptate antibody, also in cell lysis buffer (10 μl). […] A relative EC50 value and percent top (Emax) are derived by non-linear regression analysis using the percent maximal response vs. the concentration of peptide added, fitted to a four-parameter logistic equation.

[2] = target: T3, human GLP-1 receptor (hGLP-1R) (Homo sapiens, UniProt P43220); test: cAMP functional activity assay, hGLP-1R HEK-293 cells; type: cell-based; conditions: HEK293; percent of response to 10 nM GLP-1(7-36)NH2; mean ± SEM
T3 construct: expressed in transfected cells; host or cells: HEK-293 clonal cell line
T3 sequence (P43220 24-463): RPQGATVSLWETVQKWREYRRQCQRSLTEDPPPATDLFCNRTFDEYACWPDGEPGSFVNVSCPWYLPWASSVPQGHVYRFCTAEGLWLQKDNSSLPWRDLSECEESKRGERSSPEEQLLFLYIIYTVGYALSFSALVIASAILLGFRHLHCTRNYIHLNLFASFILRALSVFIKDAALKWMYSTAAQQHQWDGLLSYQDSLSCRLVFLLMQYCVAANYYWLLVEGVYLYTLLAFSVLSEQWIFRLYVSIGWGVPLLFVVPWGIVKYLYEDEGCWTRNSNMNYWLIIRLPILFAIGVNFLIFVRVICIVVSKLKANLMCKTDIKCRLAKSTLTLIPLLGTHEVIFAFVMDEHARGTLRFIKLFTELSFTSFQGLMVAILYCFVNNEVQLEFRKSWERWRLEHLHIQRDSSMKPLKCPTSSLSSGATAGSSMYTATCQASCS

[3] = system: CD8+ T cell-depleted peripheral blood mononuclear cells (CD4+ T cells); test: CD4+ T cell assay (immunogenicity); type: cell-based, human; conditions: Cell Division Index; positive donors only
Experimental: 1. CD4+ T Cell Assay: to assess the propensity for a clinical immunogenic response to the G compounds of Examples 1-4, CD8+ T cell-depleted peripheral blood mononuclear cells (PBMC's) are prepared and labeled with carboxyfluorescein diacetate succinimidyl ester (CFSE; Invitrogen) from a cohort of 10 healthy donors with diverse human leukocyte antigen (HLA) class II haplotypes. Each donor is tested in triplicate with 2.0 mL media control, keyhole limpet haemocyanin (KLH; 0.33 μM), and the compounds of Examples 1-4 (10 μM). Cultures are incubated for 7 days at 37° C. with 5% CO2. On day 7, samples are analyzed by flow cytometry using a BD LSR II Fortessa (Becton Dickinson; Franklin Lakes, N.J.), equipped with a high throughput sampler (HTS). Data is analyzed using FlowJo® Software (FlowJo, LLC/TreeStar; Ashland, Oreg.).
Protein therapeutics that induce less than 30% positive response in the CD4+ T cell proliferation assay are associated with a low risk of immunogenicity.

in vivo = conditions: male, Yucatan miniature swine, pig, sc, 10 ug/kg
Experimental: 1. […] The compounds and an analog as an internal standard are extracted from […] by antibody or protein precipitations. The intact mass of the compounds are detected by a Q Exactive® Orbitrap® Mass Spectrometer (Thermo Fisher Scientific; Waltham, Mass.). 2. […] Blood is collected at pre-dose, 2, 5, 10, 15, 20, 25, 30, 45, 60, 75, 90, 120 and 150 minutes post-dose, and plasma is obtained for pharmacokinetic characterization. […] Blood is collected at pre-dose, 2, 5, 10, 15, 20, 25, 30, 45, 60, 75, 90, 120 and 150 minutes postdose, and plasma is obtained for pharmacokinetic characterization.

hGCGR = target: T4, hGCGR (Homo sapiens, UniProt P47871); test: cAMP functional activity assay, hGCGR HEK-293 cells; type: cell-based; conditions: HEK293; percent of response to 1 nM Glucagon; mean ± SEM
T4 construct: expressed in transfected cells; host or cells: HEK-293 clonal cell line
T4 sequence (P47871 26-477): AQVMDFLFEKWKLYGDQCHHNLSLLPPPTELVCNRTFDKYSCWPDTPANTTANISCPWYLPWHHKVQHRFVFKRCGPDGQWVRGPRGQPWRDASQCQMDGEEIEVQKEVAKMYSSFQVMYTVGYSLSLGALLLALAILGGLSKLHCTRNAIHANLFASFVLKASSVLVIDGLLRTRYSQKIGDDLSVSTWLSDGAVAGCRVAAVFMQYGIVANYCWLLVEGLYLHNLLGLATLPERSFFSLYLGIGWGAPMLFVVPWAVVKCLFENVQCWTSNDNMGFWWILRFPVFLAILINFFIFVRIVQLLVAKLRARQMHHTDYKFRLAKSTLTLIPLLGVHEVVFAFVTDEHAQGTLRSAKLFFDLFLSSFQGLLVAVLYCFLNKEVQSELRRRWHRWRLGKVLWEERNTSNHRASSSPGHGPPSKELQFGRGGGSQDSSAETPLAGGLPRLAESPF
Experimental: as §1

human GLP-2 receptor = target: T2, human GLP-2 receptor; test: cell-based or functional assay

Molecule | Emax at 9.95 µM [1] | EC50 [1] | Emax [2] | Median Response Strength in positive donors (CDI) [3] | Cmax (in vivo; Cmax) | half-life (in vivo; T1/2) | Emax (hGCGR) | Tmax (in vivo) | cAMP EC50 (human GLP-2 receptor)
CC(=O)NCC[C@H](NC(=O)[C@H](CO)NC(=O)[C@@H](N)Cc1c[nH]cn1)C(=O)NCC(=O)N[C@H](C(=O)N[C@@H](Cc1ccccc1)C(=O)N[C@H](C(=O)N[C@@H](CO)C(=O)N[C@@H](CC(=O)O)C(=O)N[C@@H](Cc1ccc(O)cc1)C(=O)N[C@@H](CO)C(=O)N[C@@H](CCCCN)C(=O)N[C@@H](Cc1ccc(O)cc1)C(=O)N[C@@H](CC(C)C)C(=O)N[C@@H](CC(=O)O)C(=O)NC(C)(C)C(=O)N[C@@H](CCCNC(=N)N)C(=O)N[C@@H](CCCNC(=N)N)C(=O)N[C@@H](C)C(=O)N[C@@H](CCC(N)=O)C(=O)N[C@@H](C)C(=O)N[C@@H](Cc1ccccc1)C(=O)N[C@H](C(=O)N[C@@H](CCCCN)C(=O)N[C@@H](Cc1ccncc1)C(=O)N[C@@H](CC(C)C)C(=O)N[C@@H](CC(C)C)C(=O)N[C@@H](CO)C(=O)N[C@H](C(=O)O)[C@@H](C)O)C(C)C)[C@@H](C)O)[C@@H](C)O [Example 3] | < 5% | > 9.95 µM | 109 ± 5% | 6.5 | 1.8 ng/mL | 26.8 min | – | – | –
CC(C)C[C@H](NC(=O)[C@H](Cc1ccncc1)NC(=O)[C@H](CCCCN)NC(=O)[C@@H](NC(=O)[C@H](Cc1ccccc1)NC(=O)[C@H](CCC(N)=O)NC(=O)[C@H](CCC(N)=O)NC(=O)[C@H](C)NC(=O)[C@H](CCCNC(=N)N)NC(=O)[C@H](CCCNC(=N)N)NC(=O)C(C)(C)NC(=O)[C@H](CC(=O)O)NC(=O)[C@H](CC(C)C)NC(=O)[C@H](Cc1ccc(O)cc1)NC(=O)[C@H](CCCCN)NC(=O)[C@H](CO)NC(=O)[C@H](Cc1ccc(O)cc1)NC(=O)[C@H](CC(=O)O)NC(=O)[C@H](CO)NC(=O)[C@@H](NC(=O)[C@H](Cc1ccccc1)NC(=O)[C@@H](NC(=O)CNC(=O)[C@H](CCC(N)=O)NC(=O)[C@H](CO)NC(=O)[C@@H](N)Cc1c[nH]cn1)[C@@H](C)O)[C@@H](C)O)C(C)C)C(=O)N[C@@H](CC(C)C)C(=O)N[C@@H](CO)C(=O)N[C@H](C(=O)O)[C@@H](C)O [Example 1] (H-HSQGTFTSDYSKYLD[Aib]RRAQQFVK[4Pal]LLST-OH; N-terminus assumed) | < 5% | > 9.95 µM | 105 ± 2% | – | – | – | 103 ± 2% | 20 min | –
CC(=O)NCC[C@H](NC(=O)[C@H](CO)NC(=O)[C@@H](N)Cc1c[nH]cn1)C(=O)NCC(=O)N[C@H](C(=O)N[C@@H](Cc1ccccc1)C(=O)N[C@H](C(=O)N[C@@H](CO)C(=O)N[C@@H](CC(=O)O)C(=O)N[C@@H](Cc1ccc(O)cc1)C(=O)N[C@@H](CO)C(=O)N[C@@H](CCCCN)C(=O)N[C@@H](Cc1ccc(O)cc1)C(=O)N[C@@H](CC(C)C)C(=O)N[C@@H](CC(=O)O)C(=O)NC(C)(C)C(=O)N[C@@H](CCCNC(=N)N)C(=O)N[C@@H](CCCNC(=N)N)C(=O)N[C@@H](C)C(=O)N[C@@H](CCC(N)=O)C(=O)N[C@@H](CCC(N)=O)C(=O)N[C@@H](Cc1ccccc1)C(=O)N[C@H](C(=O)N[C@@H](CCCCN)C(=O)N[C@@H](Cc1ccncc1)C(=O)N[C@@H](CC(C)C)C(=O)N[C@@H](CC(C)C)C(=O)N[C@@H](CO)C(=O)N[C@H](C(=O)O)[C@@H](C)O)C(C)C)[C@@H](C)O)[C@@H](C)O [Example 4] (H-HS[Dab](Ac)GTFTSDYSKYLD[Aib]RRAQQFVK[4Pal]LLST-OH; N-terminus assumed) | < 5% | > 9.95 µM | 100 ± 5% | 6.42 | – | – | 98 ± 2% | 25 min | –
B1 | – | – | – | – | – | – | – | – | 16 pM
